# Legend:
# [1] = molecular target: T1, DDR1 (Homo sapiens, UniProt Q08345); assay: LanthaScreen Europium Kinase Binding assay, DDR1; conditions: 5 nM DDR1, 20 nM Kinase Tracer 178, 1 h at rt; Ki from IC50 by Cheng-Prusoff; read-out: Ki DDR1
# T1 construct: purchased Carna Biosciences
# Method: (§1) DDR1 and DDR2 binding assays were performed using Life Technologies LanthaScreen™ Europium Kinase Binding assay. The compounds were incubated with 5 nM DDR1 (Carna Biosciences) or 5 nM DDR2 (Life Technologies) for 1 h at rt in white 384-well OptiPlate (PerkinElmer), containing 20 nM or 10 nM Kinase Tracer 178 respectively and 2 nM Europium labelled anti-GST antibody (Life Technologies) in assay buffer (50 mM HEPES pH 7.5, 10 mM MgCI2, 1 mM EGTA and 0.01% BRIJ35). The ratio of fluorescence emission 665 nm/615 nm after excitation at 340 nm was obtained using the Tecan Spark 20M plate reader. IC50 values were determined in GraphPad Prism 7.0 software, using 4 parameter model: log(inhibitor) vs. response. IC50 values were converted in Ki using the Cheng-Prusoff equation (Ki=IC50/(1+[Tracer]/Kd).
# [2] = molecular target: T2, DDR2 (Homo sapiens, UniProt Q16832); assay: LanthaScreen Europium Kinase Binding assay, DDR2; conditions: 5 nM DDR2, 10 nM Kinase Tracer 178, 1 h at rt; Ki from IC50 by Cheng-Prusoff; read-out: Ki DDR2
# T2 construct: purchased Life Technologies
# T2 sequence (Q16832 22-855): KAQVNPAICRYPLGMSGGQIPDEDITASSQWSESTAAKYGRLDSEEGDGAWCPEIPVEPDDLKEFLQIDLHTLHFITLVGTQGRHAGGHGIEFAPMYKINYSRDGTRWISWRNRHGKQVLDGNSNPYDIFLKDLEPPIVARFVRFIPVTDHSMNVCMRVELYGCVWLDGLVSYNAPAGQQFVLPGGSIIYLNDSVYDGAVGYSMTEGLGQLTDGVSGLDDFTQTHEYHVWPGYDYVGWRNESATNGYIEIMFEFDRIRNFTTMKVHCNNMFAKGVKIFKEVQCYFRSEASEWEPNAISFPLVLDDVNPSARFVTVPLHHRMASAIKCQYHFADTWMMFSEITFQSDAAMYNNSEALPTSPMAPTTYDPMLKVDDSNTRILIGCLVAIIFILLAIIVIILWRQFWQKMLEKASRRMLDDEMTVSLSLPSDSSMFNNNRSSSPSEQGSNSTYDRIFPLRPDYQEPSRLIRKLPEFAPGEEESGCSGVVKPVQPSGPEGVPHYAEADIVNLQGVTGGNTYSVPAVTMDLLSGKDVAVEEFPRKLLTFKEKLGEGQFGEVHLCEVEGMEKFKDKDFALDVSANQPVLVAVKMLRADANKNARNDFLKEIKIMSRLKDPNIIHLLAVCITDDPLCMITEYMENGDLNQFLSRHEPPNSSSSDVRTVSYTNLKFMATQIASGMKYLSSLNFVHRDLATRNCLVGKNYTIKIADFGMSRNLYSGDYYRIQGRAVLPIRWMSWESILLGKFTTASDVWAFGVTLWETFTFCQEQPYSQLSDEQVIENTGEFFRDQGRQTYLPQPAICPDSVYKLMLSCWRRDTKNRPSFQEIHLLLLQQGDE
# Method: as §1
# T1 sequence (Q08345 19-913): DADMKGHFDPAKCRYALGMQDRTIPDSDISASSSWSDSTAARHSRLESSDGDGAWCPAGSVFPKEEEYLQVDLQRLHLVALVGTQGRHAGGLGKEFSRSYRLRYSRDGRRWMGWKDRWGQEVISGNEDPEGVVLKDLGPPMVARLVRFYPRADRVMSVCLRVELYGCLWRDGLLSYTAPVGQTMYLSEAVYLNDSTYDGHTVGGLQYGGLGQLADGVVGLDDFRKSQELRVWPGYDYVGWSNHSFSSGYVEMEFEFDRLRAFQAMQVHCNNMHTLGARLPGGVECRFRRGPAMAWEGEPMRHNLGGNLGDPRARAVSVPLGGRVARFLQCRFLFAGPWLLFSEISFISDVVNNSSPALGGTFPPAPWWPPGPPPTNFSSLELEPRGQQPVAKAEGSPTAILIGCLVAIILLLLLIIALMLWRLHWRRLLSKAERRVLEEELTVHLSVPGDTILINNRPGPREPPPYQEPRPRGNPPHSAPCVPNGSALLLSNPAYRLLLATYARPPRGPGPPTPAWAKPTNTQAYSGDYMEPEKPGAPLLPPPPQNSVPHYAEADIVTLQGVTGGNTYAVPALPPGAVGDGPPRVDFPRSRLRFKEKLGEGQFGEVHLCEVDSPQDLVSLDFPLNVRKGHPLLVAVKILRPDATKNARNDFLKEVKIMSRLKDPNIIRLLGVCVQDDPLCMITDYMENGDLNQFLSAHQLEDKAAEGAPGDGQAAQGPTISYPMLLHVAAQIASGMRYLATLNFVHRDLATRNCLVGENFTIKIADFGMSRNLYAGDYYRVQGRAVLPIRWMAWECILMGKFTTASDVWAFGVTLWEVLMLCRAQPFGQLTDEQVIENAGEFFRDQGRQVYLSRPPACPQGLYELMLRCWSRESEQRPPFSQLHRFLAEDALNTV
compound,measurement,setting,value
"Cc1ccc(C(=O)Nc2cncc(C(F)(F)F)c2)cc1[C@@H]1CN(c2cncnc2)C[C@H]1CO (racemic) [Example 104, 3-((3R,4S)-3-(4-(hydroxymethyl)-1-(pyrimidin-5-yl)pyrrolidin-3-yl)-4-methyl-N-(5-(trifluoromethyl)pyridin-3-yl)benzamide and 3-((3S,4R)-3-(4-(hydroxymethyl)-1-(pyrimidin-5-yl)pyrrolidin-3-yl)-4-methyl-N-(5-(trifluoromethyl)pyridin-3-yl)benzamide]",Ki,[1],< 5 nM
same,Ki,[2],5 to 25 nM
"Cc1ccc(C(=O)Nc2cncc(C(F)(F)F)c2)cc1[C@@H]1CN(c2cncnc2)C[C@H]1O (racemic) [Example 105, 3-((3S,4R)-3-(4-hydroxy-1-(pyrimidin-5-yl)pyrrolidin-3-yl)-4-methyl-N-(5-(trifluoromethyl)pyridin-3-yl)benzamide and 3-((3R,4S)-4-hydroxy-1-(pyrimidin-5-yl)pyrrolidin-3-yl)-4-methyl-N-(5-(trifluoromethyl)pyridin-3-yl)benzamide]",Ki,[1],< 5 nM
same,Ki,[2],5 to 25 nM
"COc1ccc(C(=O)Nc2cncc(C(F)(F)F)c2)cc1C1CCN(c2cncnc2)C1 (racemic) [Example 111, 4-methoxy-3-(1-(pyrimidin-5-yl)pyrrolidin-3-yl)-N-(5-(trifluoromethyl)pyridin-3-yl)benzamide]",Ki,[1],< 5 nM
same,Ki,[2],5 to 25 nM
"COc1ccc(C(=O)Nc2cncc(C(F)(F)F)c2)cc1C1CCN(c2cncnc2)C1 (single isomer, unassigned) [Example 109, 4-methoxy-3-(1-(pyrimidin-5-yl)pyrrolidin-3-yl)-N-(5-(trifluoromethyl)pyridin-3-yl)benzamide]",Ki,[1],< 5 nM
same,Ki,[2],< 5 nM
"COc1ccc(C(=O)Nc2cncc(C(F)(F)F)c2)cc1C1CCN(c2cncnc2)C1 (single isomer, unassigned) [Example 110, 4-methoxy-3-(1-(pyrimidin-5-yl)pyrrolidin-3-yl)-N-(5-(trifluoromethyl)pyridin-3-yl)benzamide]",Ki,[1],< 5 nM
same,Ki,[2],5 to 25 nM
"COc1ccc(C(=O)Nc2cncc(C(F)(F)F)c2)cc1C1CCN(c2cnn3cccnc23)C1 (single isomer, unassigned) [Example 114, 4-methoxy-3-(1-(pyrazolo[1,5-a]pyrimidin-3-yl)pyrrolidin-3-yl)-N-(5-(trifluoromethyl)pyridin-3-yl)benzamide]",Ki,[1],< 5 nM
same,Ki,[2],5 to 25 nM
"COc1ccc(C(=O)Nc2cncc(C(F)(F)F)c2)cc1C1CCN(c2cnn3cccnc23)C1 (single isomer, unassigned) [Example 115, 4-methoxy-3-(1-(pyrazolo[1,5-a]pyrimidin-3-yl)pyrrolidin-3-yl)-N-(5-(trifluoromethyl)pyridin-3-yl)benzamide]",Ki,[1],< 5 nM
same,Ki,[2],5 to 25 nM
"O=C(Nc1cncc(C(F)(F)F)c1)c1ccc(OC(F)F)c(C2CCN(c3cncnc3)C2)c1 (single isomer, unassigned) [Example 116, 4-(difluoromethoxy)-3-(1-(pyrimidin-5-yl)pyrrolidin-3-yl)-N-(5-(trifluoromethyl)pyridin-3-yl)benzamide]",Ki,[1],< 5 nM
same,Ki,[2],< 5 nM
"O=C(Nc1cncc(C(F)(F)F)c1)c1ccc(OC(F)F)c(C2CCN(c3cncnc3)C2)c1 (single isomer, unassigned) [Example 117, 4-(difluoromethoxy)-3-(1-(pyrimidin-5-yl)pyrrolidin-3-yl)-N-(5-(trifluoromethyl)pyridin-3-yl)benzamide]",Ki,[1],< 5 nM
same,Ki,[2],< 5 nM
"NC(=O)c1cc(N2CCC(c3cc(C(=O)Nc4cncc(C(F)(F)F)c4)ccc3OC(F)F)C2)ccn1 (single isomer, unassigned) [Example 118, 4-(3-(2-(difluoromethoxy)-5-((5-(trifluoromethyl)pyridin-3-yl)carbamoyl)phenyl)pyrrolidin-1-yl)picolinamide]",Ki,[1],< 5 nM
same,Ki,[2],5 to 25 nM
"NC(=O)c1cc(N2CCC(c3cc(C(=O)Nc4cncc(C(F)(F)F)c4)ccc3OC(F)F)C2)ccn1 (single isomer, unassigned) [Example 119, 4-(3-(2-(difluoromethoxy)-5-((5-(trifluoromethyl)pyridin-3-yl)carbamoyl)phenyl)pyrrolidin-1-yl)picolinamide]",Ki,[1],< 5 nM
same,Ki,[2],5 to 25 nM
"O=C(Nc1cncc(C(F)(F)F)c1)c1ccc(C(F)F)c(C2CCN(c3cncnc3)C2)c1 (single isomer, unassigned) [Example 121]",Ki,[1],< 5 nM
same,Ki,[2],< 5 nM
"Cc1ccc(C(=O)Nc2cncc(C(F)(F)F)c2)cc1C1CN(c2cncnc2)CC1O (single isomer, unassigned) [Example 122, 3-(4-hydroxy-1-(pyrimidin-5-yl)pyrrolidin-3-yl)-4-methyl-N-(5-(trifluoromethyl)pyridin-3-yl)benzamide]",Ki,[1],< 5 nM
same,Ki,[2],5 to 25 nM
"Cc1ccc(C(=O)Nc2cncc(C(F)(F)F)c2)cc1C1CCN(c2cnn3cccnc23)C1 (stereo in doubt) [Example 90, 4-methyl-3-[(3R)-1-pyrazolo[1,5-a]pyrimidin-3-ylpyrrolidin-3-yl]-N-[5-(trifluoromethyl)-3-pyridyl]benzamide]",Ki,[1],< 5 nM
same,Ki,[2],5 to 25 nM
"Cc1ccc(C(=O)Nc2cncc(C(F)(F)F)c2)cc1[C@@H]1CCN(c2cncc(C(N)=O)c2)C1 [Example 1, (S)-5-(3-(2-methyl-5-((5-(trifluoromethyl)pyridin-3-yl)carbamoyl)phenyl)pyrrolidin-1-yl)nicotinamide]",Ki,[1],< 5 nM
same,Ki,[2],< 5 nM
"Cc1ccc(C(=O)Nc2cncc(C(F)(F)F)c2)cc1[C@H]1CCN(c2cncc(C(N)=O)c2)C1 [Example 2, (R)-5-(3-(2-methyl-5-((5-(trifluoromethyl)pyridin-3-yl)carbamoyl)phenyl)pyrrolidin-1-yl)nicotinamide]",Ki,[1],< 5 nM
same,Ki,[2],5 to 25 nM
"Cc1ccc(C(=O)Nc2cc(C(C)(C)C)n(C)n2)cc1[C@@H]1CCN(c2cncc(C(N)=O)c2)C1 [Example 3, (S)-5-(3-(5-((5-(tert-butyl)-1-methyl-1H-pyrazol-3-yl)carbamoyl)-2-methylphenyl)pyrrolidin-1-yl)nicotinamide]",Ki,[1],< 5 nM
same,Ki,[2],< 5 nM
"Cc1ccc(C(=O)Nc2cc(C(C)(C)C(F)(F)F)on2)cc1[C@@H]1CCN(c2cncc(C(N)=O)c2)C1 [Example 4, (S)-5-(3-(2-methyl-5-((5-(1,1,1-trifluoro-2-methylpropan-2-yl)isoxazol-3-yl)carbamoyl)phenyl)pyrrolidin-1-yl)nicotinamide]",Ki,[1],< 5 nM
same,Ki,[2],< 5 nM
"Cc1ccc(C(=O)Nc2cc(C(C)(C)C)nn2C)cc1[C@@H]1CCN(c2cncc(C(N)=O)c2)C1 [Example 5, (S)-5-(3-(5-((3-(tert-butyl)-1-methyl-1H-pyrazol-5-yl)carbamoyl)-2-methylphenyl)pyrrolidin-1-yl)nicotinamide]",Ki,[1],< 5 nM
same,Ki,[2],5 to 25 nM
"Cc1ccc(C(=O)Nc2cc(C(C)(C)C)no2)cc1[C@@H]1CCN(c2cncc(C(N)=O)c2)C1 [Example 6, (S)-5-(3-(5-((3-(tert-butyl)isoxazol-5-yl)carbamoyl)-2-methylphenyl)pyrrolidin-1-yl)nicotinamide]",Ki,[1],< 5 nM
same,Ki,[2],< 5 nM
"Cc1ccc(C(=O)Nc2cc(C(C)(C)C)no2)cc1[C@@H]1CCN(c2cncc(C#N)c2)C1 [Example 7, (S)—N-(3-(tert-butyl)isoxazol-5-yl)-3-(1-(5-cyanopyridin-3-yl)pyrrolidin-3-yl)-4-methylbenzamide]",Ki,[1],< 5 nM
same,Ki,[2],5 to 25 nM
"Cc1ccc(C(=O)Nc2cc(C(F)(F)F)ncn2)cc1[C@@H]1CCN(c2cncc(C#N)c2)C1 [Example 8, (S)-3-(1-(5-cyanopyridin-3-yl)pyrrolidin-3-yl)-4-methyl-N-(6-(trifluoromethyl)pyrimidin-4-yl)benzamide]",Ki,[1],< 5 nM
same,Ki,[2],5 to 25 nM
"Cc1ccc(C(=O)Nc2cc(OC(F)(F)F)ccn2)cc1[C@@H]1CCN(c2cncc(C(N)=O)c2)C1 [Example 9, (S)-5-(3-(2-methyl-5-((4-(trifluoromethoxy)pyridin-2-yl)carbamoyl)phenyl)pyrrolidin-1-yl)nicotinamide]",Ki,[1],< 5 nM
same,Ki,[2],< 5 nM
